According to BindingDB's records for doi:10.1111/j.1432-1033.1994.00489.x (Universit&Eacute, 1994):
pKi: −log10 of the molar value.

Target: Histamine H1 receptor (Cavia porcellus, UniProt P31389)
Sequence (P31389 whole entry): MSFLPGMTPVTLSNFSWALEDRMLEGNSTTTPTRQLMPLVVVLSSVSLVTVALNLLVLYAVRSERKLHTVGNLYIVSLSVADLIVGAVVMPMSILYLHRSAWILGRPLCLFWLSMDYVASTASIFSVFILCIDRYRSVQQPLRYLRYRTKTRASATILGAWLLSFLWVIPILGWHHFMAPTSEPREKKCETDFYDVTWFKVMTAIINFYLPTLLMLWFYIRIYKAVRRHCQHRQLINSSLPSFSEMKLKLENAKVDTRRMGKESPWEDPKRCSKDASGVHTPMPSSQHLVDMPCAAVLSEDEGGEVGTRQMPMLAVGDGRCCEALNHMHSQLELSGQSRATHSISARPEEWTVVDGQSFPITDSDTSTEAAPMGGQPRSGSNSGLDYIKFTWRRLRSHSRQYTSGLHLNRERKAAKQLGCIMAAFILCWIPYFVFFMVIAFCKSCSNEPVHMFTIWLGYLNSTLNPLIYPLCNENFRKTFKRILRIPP

SMILES	pKi
Cc1ccc(/C(=C\CN2CCCC2)c2ccccn2)cc1 [Actahist]	9.51
O=C(O)COCCN1CCN(C(c2ccccc2)c2ccc(Cl)cc2)CC1 (configuration not stated)	7.90
